Reference: patent publication US20240041042A1, “1-(PYRIDYL)-5-AZINYLPYRAZOLE DERIVATIVES, AND THEIR USE FOR CONTROL OF UNDESIRED PLANT GROWTH” (Bayer Aktiengesellschaft, priority 2020, published 2024)
Read-outs that look alike come from different tables or passages of the source.

Tests used:
Assay type in all cases: in vivo
[1] = tested on: Abutilon theophrasti (ABUTH); test: Pre-emergence herbicidal action against ABUTH; details: Dosage column 320 g/ha (title prints 3200 g/ha); scored visually after about 3 weeks; 100% = plants have died
From the text: Seeds of monocotyledonous and dicotyledonous weed plants and crop plants are placed in plastic or organic planting pots and covered with soil. The compounds of the invention, formulated in the form of wettable powders (WP) or as emulsion concentrates (EC), are then applied to the surface of the covering soil as aqueous suspension or emulsion with addition of 0.5% additive at a water application rate equivalent to 600 l/ha. After the treatment, the pots are placed in a greenhouse and kept under good growth conditions for the trial plants. After about 3 weeks, the effect of the preparations is scored visually in comparison with untreated controls as percentages. For example, 100% activity=the plants have died, 0% activity=like control plants.
Tables A1 to A13 below show the effects of selected compounds of the general formula (I) on various harmful plants and at an application rate corresponding to 320 g/ha or lower, which were obtained by the experimental procedure mentioned above. The appendices “a”, “b” and “c” give differentiation by dosage used with otherwise the same harmful plants tested.

[2] = tested on: Alopecurus myosuroides (ALOMY); test: Pre-emergence herbicidal action against ALOMY; details: scored visually after about 3 weeks, 100% = plants have died
In short: (§1)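 Greenhouse pot trial: seeds sown, soil-covered, sprayed before emergence with compound in water (0.5% additive; 600 l/ha; ≤320 g/ha). Scoring visual, ~3 weeks, 0–100% scale vs untreated.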

[3] = tested on: Amaranthus retroflexus (AMARE); test: Pre-emergence herbicidal action against AMARE; details: visual scoring after about 3 weeks vs untreated controls
In short: as §1

Avena fatua (AVEFA) [4] = test: Pre-emergence herbicidal action against AVEFA; details: visual scoring after about 3 weeks vs untreated controls
In short: as §1

[5] = tested on: Echinochloa crus-galli (ECHCG); test: Pre-emergence herbicidal action against ECHCG; details: dosage 320 g/ha
In short: as §1

Lolium rigidum (LOLRI) [6] = test: Pre-emergence herbicidal action against LOLRI
In short: as §1

[7] = tested on: Matricaria inodora (MATIN); test: Pre-emergence herbicidal action against MATIN; details: dosage 320 g/ha
In short: as §1

[8] = tested on: Pharbitis purpurea (PHBPU); test: Pre-emergence herbicidal action against PHBPU; details: dosage 320 g/ha
In short: as §1

[9] = tested on: Polygonum convolvulus (POLCO); test: Pre-emergence herbicidal action against POLCO
In short: as §1

Setaria viridis (SETVI) [10] = test: Pre-emergence herbicidal action against SETVI
In short: as §1

[11] = tested on: Verconica persica (VERPE); test: Pre-emergence herbicidal action against VERPE
In short: as §1

Viola tricolor (VIOTR) [12] = test: Pre-emergence herbicidal action against VIOTR
In short: as §1

[13] = tested on: Alopecurus myosuroides (ALOMY); test: Post-emergence herbicidal action against ALOMY; details: visual rating about 3 weeks after treatment vs untreated controls (100% = plants have died, 0% = like control plants)
In short: (§2)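 Post-emergence greenhouse spray, one-leaf stage, 600 l/ha water plus 0.5% additive; WP or EC formulations; application rates 320 g/ha or lower. Visual % damage vs untreated controls at ~3 weeks.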

[14] = tested on: Amaranthus retroflexus (AMARE); test: Post-emergence herbicidal action against AMARE
In short: as §2

Avena fatua (AVEFA) [15] = test: Post-emergence herbicidal action against AVEFA; details: visual rating about 3 weeks after treatment
In short: as §2

[16] = tested on: Echinochloa crus-galli (ECHCG); test: Post-emergence herbicidal action against ECHCG
In short: as §2

Lolium rigidum (LOLRI) [17] = test: Post-emergence herbicidal action against LOLRI
In short: as §2

[18] = tested on: Pharbitis purpurea (PHBPU); test: Post-emergence herbicidal action against PHBPU
In short: as §2

[19] = tested on: Polygonum convolvulus (POLCO); test: Post-emergence herbicidal action against POLCO
In short: as §2

Setaria viridis (SETVI) [20] = test: Post-emergence herbicidal action against SETVI
In short: as §2

[21] = tested on: Verconica persica (VERPE); test: Post-emergence herbicidal action against VERPE
In short: as §2

Viola tricolor (VIOTR) [22] = test: Post-emergence herbicidal action against VIOTR
In short: as §2

[23] = tested on: Abutilon theophrasti (ABUTH); test: Post-emergence herbicidal action against ABUTH; details: visual rating about 3 weeks after treatment vs untreated controls (100% = plants have died, 0% = like control plants)
In short: as §2

Zea mays (ZEAMX) = details: for Post-emergence action against ZEAMX in %: crop plant compatibility, 80 g/ha, effect vs untreated controls
In short: (§3)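 Effects were read visually as % versus untreated controls (0% = no effect, 100% = death) about 3 weeks post-treatment. Application was a post-emergence spray at the one-leaf stage of WP/EC formulations with 0.5% additive at 600 l/ha. Different dosages are denoted a, b and c.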

Oryza sativa (ORYSA) = details: crop plant compatibility
In short: as §3

[24] = 80 g/ha, visual rating about 3 weeks after treatment vs untreated controls (100% = plants have died, 0% = like control plants)
[25] = 320 g/ha, visual rating about 3 weeks after treatment

SMILES | Pre-emergence action against ABUTH [1] [%] | Pre-emergence action against ALOMY ([2]; 80 g/ha) [%] | Pre-emergence action against ALOMY ([2]; 320 g/ha) [%] | Pre-emergence action against AMARE in % ([3]; 80 g/ha) [%] | Pre-emergence action against AMARE in % ([3]; 320 g/ha) [%] | Pre-emergence action against AVEFA in % (Avena fatua (AVEFA) [4]; 80 g/ha) [%] | Pre-emergence action against AVEFA in % (Avena fatua (AVEFA) [4]; 320 g/ha) [%] | Pre-emergence action against ECHCG in % [5] [%] | Pre-emergence action against LOLRI in % (Lolium rigidum (LOLRI) [6]; dosage 80 g/ha) [%] | Pre-emergence action against LOLRI in % (Lolium rigidum (LOLRI) [6]; dosage 320 g/ha) [%] | Pre-emergence action against MATIN in % [7] [%] | Pre-emergence action against PHBPU in % [8] [%] | Pre-emergence action against POLCO in % ([9]; dosage 80 g/ha) [%] | Pre-emergence action against POLCO in % ([9]; dosage 320 g/ha) [%] | Pre-emergence action against SETVI in % (Setaria viridis (SETVI) [10]; dosage 320 g/ha) [%] | Pre-emergence action against VERPE in % ([11]; dosage 320 g/ha) [%] | Pre-emergence action against VIOTR in % (Viola tricolor (VIOTR) [12]; 320 g/ha, Viola tricolor) [%] | Pre-emergence action against VIOTR in % (Viola tricolor (VIOTR) [12]; dosage 80 g/ha) [%] | Post-emergence action against ALOMY in % ([13]; 80 g/ha) [%] | Post-emergence action against ALOMY in % ([13]; 320 g/ha) [%] | further results
C[C@@H](Oc1nn(-c2ccccn2)c(-c2cncnc2)c1Cl)C(=O)O [Example I-20] | 90 | 90 | 100 | 100 | 100 | 90 | 100 | 100 | 100 | 100 | 100 | 90 | 90 | 100 | 100 | 100 | 100 | 100 | 100 | 100 | Post-emergence action against AMARE in % [14, 24]: 90%; Post-emergence action against AMARE in % [14, 25]: 90%; Post-emergence action against AVEFA in % (Avena fatua (AVEFA) [15]; 80 g/ha): 90%; Post-emergence action against AVEFA in % (Avena fatua (AVEFA) [15]; 320 g/ha): 90%; Post-emergence action against ECHCG in % ([16]; dosage 320 g/ha): 80%; Post-emergence action against LOLRI in % (Lolium rigidum (LOLRI) [17]; dosage 80 g/ha): 90%; Post-emergence action against LOLRI in % (Lolium rigidum (LOLRI) [17]; dosage 320 g/ha): 90%; Post-emergence action against PHBPU in % ([18]; dosage 80 g/ha): 90%; Post-emergence action against PHBPU in % ([18]; dosage 320 g/ha): 90%; Post-emergence action against POLCO in % ([19]; dosage 320 g/ha): 80%; Post-emergence action against SETVI in % (Setaria viridis (SETVI) [20]; dosage 320 g/ha): 90%; Post-emergence action against VERPE in % ([21]; 320 g/ha, VERPE): 80%; Post-emergence action against VIOTR in % (Viola tricolor (VIOTR) [22]; 80 g/ha): 90%; Post-emergence action against VIOTR in % (Viola tricolor (VIOTR) [22]; 320 g/ha): 90%
CCOC(=O)CNC(=O)COc1nn(-c2ncccc2F)c(-c2ccc(OC)nc2)c1Br [Example I-48] | 80 | 80 | 100 | 90 | 100 |  | 100 | 100 | 100 | 100 | 100 |  | 90 | 90 | 100 | 100 | 100 | 100 | 100 | 100 | Pre-emergence action against SETVI in % (Setaria viridis (SETVI) [10]; dosage 80 g/ha): 100%; Post-emergence action against ABUTH in % ([23]; 80 g/ha): 90%; Post-emergence action against ABUTH in % ([23]; 320 g/ha): 90%; Post-emergence action against AMARE in % [14, 24]: 80%; Post-emergence action against AMARE in % [14, 25]: 80%; Post-emergence action against AVEFA in % (Avena fatua (AVEFA) [15]; 320 g/ha): 100%; Post-emergence action against ECHCG in % ([16]; dosage 80 g/ha): 80%; Post-emergence action against ECHCG in % ([16]; dosage 320 g/ha): 90%; Post-emergence action against LOLRI in % (Lolium rigidum (LOLRI) [17]; dosage 320 g/ha): 80%; Post-emergence action against PHBPU in % ([18]; dosage 320 g/ha): 90%; Post-emergence action against POLCO in % ([19]; dosage 80 g/ha): 80%; Post-emergence action against POLCO in % ([19]; dosage 320 g/ha): 90%; Post-emergence action against SETVI in % (Setaria viridis (SETVI) [20]; dosage 80 g/ha): 80%; Post-emergence action against SETVI in % (Setaria viridis (SETVI) [20]; dosage 320 g/ha): 80%; Post-emergence action against VERPE in % ([21]; 320 g/ha, VERPE): 90%; Post-emergence action against VERPE in % ([21]; dosage 80 g/ha): 90%; Post-emergence action against VIOTR in % (Viola tricolor (VIOTR) [22]; 80 g/ha): 80%; Post-emergence action against VIOTR in % (Viola tricolor (VIOTR) [22]; 320 g/ha): 90%; Post-emergence action against ZEAMX in % (Zea mays (ZEAMX)): 20%
C[C@@H](Oc1nn(-c2ncccc2F)c(-c2ccc(F)nc2)c1Br)C(=O)OCc1ccccn1 [Example I-52] | 80 | 90 | 100 | 80 | 100 | 90 | 100 | 100 | 90 | 100 | 90 | 90 |  | 90 | 100 | 100 | 100 | 100 | 90 |  | Pre-emergence action against VERPE in % ([11]; dosage 80 g/ha): 80%; Post-emergence action against AVEFA in % (Avena fatua (AVEFA) [15]; 80 g/ha): 90%; Post-emergence action against LOLRI in % (Lolium rigidum (LOLRI) [17]; dosage 80 g/ha): 80%; Post-emergence action against SETVI in % (Setaria viridis (SETVI) [20]; dosage 80 g/ha): 80%; Post-emergence action against VERPE in % ([21]; dosage 80 g/ha): 90%; Post-emergence action against ORYSA in % (Oryza sativa (ORYSA); 20 g/ha, effect vs untreated controls): 0%; Post-emergence action against ORYSA in % (Oryza sativa (ORYSA); 80 g/ha, effect in comparison to untreated controls): 10%; Post-emergence action against ZEAMX in % (crop plant compatibility) (Zea mays (ZEAMX); 20 g/ha, ZEAMX, effect in comparison to untreated controls): 0%; Post-emergence action against ZEAMX in % (Zea mays (ZEAMX)): 10%
